Assay [1] can be described thus: Reaction with MDA salt in glyceryl trioleate / Captisol-PBS / linoleic acid, monitored by LC/MS. The settings on record: 0.064 mmol compound and MDA, ambient temperature. The protocol:
To five separate reaction vials was added Compounds 1, 2, 12, 14, and 16, respectively (0.064 mmol), MDA salt (22.7% MDA, 0.064 mmol), and glyceryl trioleate (600 mg). To the mixture was added 20 wt % Capitsol in aqueous PBS (˜2.5 ml), followed by linoleic acid (600 mg). The reaction mixture was stirred vigorously at ambient temperature and monitored by LC/MS. […] Other MDA adducts were also formed at different time points of the reactions.

Assay [2] has as its system radiation induced fibrosis. Kind of assay: Radiation induced fibrosis after 40 Gy irradiation. It is filed as in vivo. The note with it: hamsters subject to 40 Gy irradiation; FIG. 7.
The test system of assay [3] is Primary rat cortical cultures. Kind of assay: LDH assay in primary rat cortical cultures. It is filed as cell-based. The settings on record: 24 or 48 hours, various concentrations; FIG. 2. As to the method: Primary rat cortical cultures were placed in an incubator for 24 or 48 hours and treated with various concentrations of Compound 9. Then 20 μL of the culture media was removed for an LDH assay as described in Bergmeyer et al., Methods of Enzymatic Analysis, 3rd ed. (1983).

The subject of the next assay is circulating cytokines. Kind of assay: LPS exposure in mice, ELISA of circulating cytokines. Type of assay: in vivo, Male C57BI/6 mice. The settings on record: single dose 30 minutes before LPS (20 mg/kg), blood two hours after LPS. The protocol:
Male C57BI/6 mice were dosed with Compound 9 30 minutes before they were exposed to LPS (20 mg/kg). Two hours after the LPS exposure, blood was collected from the mice and an ELISA was conducted to determine the amount of circulating cytokines.
A general note: In an ELISA, binding on a coated surface is turned into a signal by an enzyme label.

Another assay relates to contact dermatitis. Kind of assay: Contact dermatitis, phorbol myristate acetate (PMA) model, pinna thickness. It is filed as in vivo, mice. The note with it: single dose, FIG. 5A. As to the method: To determine the efficacy of Compound 9 in treating contact dermatitis, phorbol myristate acetate (“PMA”) was applied topically (2.5 μg in 20 μL) to both the anterior and posterior portions of the right pinna of mice (N=10 per group). As a control, the left pinna received 20 μL of ethanol (PMA excipient) to both the anterior and posterior portions. Six hours after the PMA application, both the right and left pinna thickness was determined. Measurements were determined at least twice from the same region of both ears, with care taken not to include hair or folded pinna.

The next assay concerns allergic dermatitis. Kind of assay: Allergic dermatitis, oxazolone (OXL) model, pinna thickness. It is filed as in vivo, mice. The settings on record: single dose 100 mg/kg intraperitoneally, FIG. 5B. The protocol: To measure the efficacy of Compound 9 in treating allergic dermatitis, oxazolone (“OXL”) was applied (1.5%, 100 μL in acetone) to the shaved abdomens of mice. Seven days later, the thickness of the pinna of the OXL treated mice was determined. Then Compound 9 (100 mg/kg) or the vehicle (i.e., Captisol) was administered intraperitoneally to mice followed by topical application of OXL (1%, 20 μL) 30 min later to both the anterior and posterior portions of the right pinna. As a control, the left pinna received 20 μL of acetone (OXL excipient) to both the anterior and posterior portions. The thickness of the pinna of both ears was measured again 24 hours later. N=10 per group.

The nature of assay [4]: Aldehyde trapping (FIG. 1), MDA.
Assay [5] in a line: Aldehyde trapping (FIG. 1), HNE.
The mark [6] stands for this setting: in the presence of peptides and phospholipids.

The structures appear in SMILES notation. “Also recorded” adds a separate entry of the source.

With `CC(C)(O)c1c(N)cc(Cl)c2c(C3CC3)noc12` [Compound 16, 2-(6-amino-4-chloro-3-cyclopropylbenzisoxazol-7-yl)propan-2-ol], in assay [1], the “form of the MDA adducts” value is “a majority of the adducts were bis-oxaminal”; the “reaction with MDA / trapping of MDA (formation of MDA adducts)” value (from here on “reaction with MDA / trapping of MDA”) was “quickly react with MDA to form MDA adducts; also recorded: reacts and traps MDA”.

As for `CC(C)(O)c1nc2ccc(Cl)cc2cc1N` [Compound 9], the radiation induced fibrosis result in assay [2] is given as “diminishes radiation induced fibrosis”. Moreover, in assay [1], the “form of the MDA adducts” value was “in both the imine form and the oxaminal form”; the “reaction with MDA / trapping of MDA” value is “reacted with MDA and formed MDA adducts; also recorded: reacts and traps MDA”. Moreover, the “aldehyde-mediated cell death in neurons (LDH assay)” value in assay [3] is reported as “prevented aldehyde-mediated cell death in neurons”. The “other chemokines, such as eotaxin, IL-12, IP-10, LIF, MCP-1, MIG, MIP, and RANTES” value with circulating cytokines is recorded as “decreased”. Further, the “anti-inflammatory cytokines, such as IL-10” value in the assay with circulating cytokines (FIG. 4) was “elevated”. Further, the “proinflammatory cytokines, such as IL-5 and IL-1β, IL-17, and TNF” value with circulating cytokines (FIGS. 3 and 4) is given as “broad downregulation; also recorded: reduction”. Moreover, the “efficacy against contact dermatitis” value with contact dermatitis is “effective”. The “efficacy against allergic dermatitis” value in the assay with allergic dermatitis was “effective”. Also, the “reaction with and trapping of MDA” value in assay [4] (FIG. 1) is “rapidly reacts with and traps; also recorded: decrease aldehyde (e.g., MDA and HNE) concentration in a time-dependent manner”. Moreover, in assay [4] (setting [6]), the “trapping of MDA” value was “rapidly traps MDA and HNE”. For the same molecule, in assay [5] (FIG. 1), the “reaction with and trapping of HNE” value was “rapidly reacts with and traps; also recorded: decrease aldehyde (e.g., MDA and HNE) concentration in a time-dependent manner”. Besides, the “trapping of HNE” value in assay [5] (setting [6]) was “rapidly traps MDA and HNE”.

Turning to `CC(C)(O)c1c(N)cc2onc(C3CC3)c2c1Cl` [Compound 14, 2-(6-amino-4-chloro-3-cyclopropylbenzisoxazol-5-yl)propan-2-ol], in assay [1], the “form of the MDA adducts” value is “a majority of the adducts were bis-oxaminal”; the “reaction with MDA / trapping of MDA” value was “quickly react with MDA to form MDA adducts; also recorded: reacts and traps MDA”.

With `CC(C)(O)c1c(N)cnc2ccc(Cl)c(F)c12` [Compound 1, 2-(3-amino-6-chloro-5-fluoroquinolin-4-yl)propan-2-ol], in assay [1], the “form of the MDA adducts” value is “a majority of the adducts were bis-oxaminal”; the “reaction with MDA / trapping of MDA” value was “quickly react with MDA to form MDA adducts; also recorded: reacts and traps MDA”.

In the case of `CC(C)(O)c1c(N)cnc2ccc(Cl)cc12` [Compound 2, 2-(3-amino-6-chloroquinolin-4-yl)propan-2-ol], the “reaction with MDA / trapping of MDA” value in assay [1] was “quickly react with MDA to form MDA adducts; also recorded: reacts and traps MDA”.

Take `Cc1ccc(-c2nc3cc(N)c(C(C)(C)O)c(Cl)c3o2)cc1` [Compound 12, 2-(5-amino-7-chloro-2-p-tolylbenzoxazol-6-yl)propan-2-ol]: in assay [1], the “form of the MDA adducts” value is reported as “a majority of the adducts were bis-oxaminal”; the “reaction with MDA / trapping of MDA” value was “quickly react with MDA to form MDA adducts; also recorded: reacts and traps MDA”.

Values taken from US12128013B2, “Toxic aldehyde related diseases and treatment” (Aldeyra Therapeutics, Inc., priority 2013, dated 2024).
